Source: ChEMBL document CHEMBL1136947, “Exploration of novel thiobarbituric acid-, rhodanine- and thiohydantoin-based HIV-1 integrase inhibitors” (Bioorg Med Chem Lett, 2009)

Key:
[1] = target: T1, Human immunodeficiency virus type 1 integrase (Human immunodeficiency virus 1, UniProt Q7ZJM1); assay: Inhibition of HIV1 integrase using labelled oligonucleotide substrate by ELISA
[2] = Cytotoxicity against human MT4 cells by MTT method; format: cell-based
[3] = test system: Human immunodeficiency virus 1; assay: Antiviral activity against HIV1 3B infected in human MT4 cells assessed as reduction of virus-induced cytopathogenicity by MTT assay; format: functional, organism-based; details: Human immunodeficiency virus 1, 3B
[4] = target: T1, Human immunodeficiency virus type 1 integrase; assay: Inhibition of HIV1 integrase 3'-processing activity using labelled oligonucleotide substrate by ELISA
[5] = target: T1, Human immunodeficiency virus type 1 integrase; assay: Inhibition of HIV1 integrase strand transfer activity using labelled oligonucleotide substrate by ELISA
[6] = Therapeutic index, ratio of CC50 for human MT4 cells to EC50 for HIV1 3B; format: cell-based; details: read-out: Ratio CC50/EC50

T1 sequence (Q7ZJM1 whole entry): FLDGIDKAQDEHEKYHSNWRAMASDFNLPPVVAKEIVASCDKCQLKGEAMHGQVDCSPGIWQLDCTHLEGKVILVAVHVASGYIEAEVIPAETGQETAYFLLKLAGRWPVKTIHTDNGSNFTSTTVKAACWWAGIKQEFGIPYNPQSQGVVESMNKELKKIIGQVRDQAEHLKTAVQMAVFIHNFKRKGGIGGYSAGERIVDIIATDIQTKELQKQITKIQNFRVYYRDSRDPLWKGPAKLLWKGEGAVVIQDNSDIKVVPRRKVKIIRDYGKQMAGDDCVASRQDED

SMILES	IC50 [1]	CC50 [2]	EC50 [3]	IC50 [4]	IC50 [5]	selectivity ratio [6]
O=C1NC(=S)S/C1=C\c1ccc(-c2cc(C(=O)O)cc(O)c2O)o1	15.5 µM	131 µM	18 µM	22.3 µM	164 µM	7
O=C1NC(=S)NC(=O)C1=Cc1ccc(-c2ccc(Cl)c(C(=O)O)c2)o1	41.7 µM	152 µM	> 152 µM	12.9 µM	–	–
COc1cc(-c2ccc(C=C3C(=O)NC(=S)NC3=O)o2)c(Cl)cc1C(=O)O	43.2 µM	100 µM	> 100 µM	35.3 µM	–	–
O=C1NC(=S)N/C1=C\c1ccc(-c2ccc(C(=O)O)c(O)c2)o1	107 µM	193 µM	> 193 µM	74 µM	–	–
Cc1ccc(C(=O)O)cc1-c1ccc(C=C2C(=O)NC(=S)NC2=O)o1	46.4 µM	159 µM	> 159 µM	25.4 µM	–	–
COc1cc(-c2ccc(/C=C3\SC(=S)NC3=O)o2)c(Cl)cc1C(=O)O	> 250 µM	143 µM	> 143 µM	> 250 µM	–	–
O=C1NC(=S)NC(=O)C1=Cc1ccc(-c2ccc(F)cc2C(=O)O)o1	184 µM	165 µM	> 165 µM	47.1 µM	–	–
O=C1NC(=S)NC(=O)C1=Cc1ccc(-c2cccc(C(=O)O)c2O)o1	> 250 µM	140 µM	> 140 µM	> 250 µM	–	–
COc1cc(-c2ccc(C(=O)O)c(O)c2)oc1/C=C1\SC(=S)NC1=O	> 250 µM	> 125 µM	112 µM	> 250 µM	–	–
COc1cc(C(=O)O)cc(OC)c1-c1ccc(C=C2C(=O)NC(=S)NC2=O)o1	167 µM	61.1 µM	> 61.1 µM	> 250 µM	–	–
Cc1c(-c2ccc(C=C3C(=O)NC(=S)NC3=O)o2)cccc1[N+](=O)[O-]	58.4 µM	17.9 µM	> 17.9 µM	40.8 µM	–	–
O=C1NC(=S)NC(=O)C1=Cc1ccc(-c2ccc(O)c(C(=O)O)c2)o1	33.4 µM	222 µM	> 222 µM	53 µM	–	–
Cc1cc(-c2ccc(C(=O)O)c(O)c2)oc1/C=C1\NC(=S)NC1=O	> 250 µM	–	–	> 250 µM	–	–
Cc1nnc(C(=O)NC(C)(C)c2nc(C(=O)NCc3ccc(F)cc3)c(O)c(=O)n2C)o1	–	143 µM	0.0064 µM	–	–	–
O=C1NC(=S)NC(=O)C1=Cc1ccc(-c2cc(C(=O)O)cc3c2OCO3)o1	56.5 µM	> 125 µM	> 125 µM	71.6 µM	–	–
O=C1NC(=S)NC(=O)C1=Cc1ccc(-c2cc(C(=O)O)cc(O)c2O)o1	5.06 µM	138 µM	54.7 µM	5.79 µM	> 250 µM	3
Cc1cc(-c2ccc(C(=O)O)c(O)c2)oc1/C=C1\SC(=S)NC1=O	158 µM	–	–	135 µM	–	–
O=C1NC(=S)N/C1=C\c1ccc(-c2ccc(O)c(C(=O)O)c2)o1	50.9 µM	152 µM	95.2 µM	> 250 µM	> 250 µM	2
Cc1cc(-c2ccc(C(=O)O)c(O)c2)oc1C=C1C(=O)NC(=S)NC1=O	90.9 µM	> 125 µM	> 125 µM	125 µM	–	–
O=C1NC(=S)S/C1=C\c1ccc(-c2ccc(C(=O)O)c(O)c2)o1	182 µM	> 72 µM	30.1 µM	> 250 µM	97.7 µM	2
O=C1NC(=S)NC(=O)C1=Cc1ccc(-c2ccc(C(=O)O)c(O)c2)o1	8.94 µM	60 µM	30 µM	2.74 µM	69.2 µM	2
O=C1NC(=S)S/C1=C\c1ccc(-c2ccc(Cl)c(C(=O)O)c2)o1	> 250 µM	155 µM	> 155 µM	> 250 µM	–	–
